Where two headings read alike, the source gives them in different places.
Assays:
Type in all cases: cell-based
BCL-XL [1] = target: T1, BCL-XL (Homo sapiens, UniProt Q07817); test: BCL-XL degradation assay, western blot in MOLT-4 cells, 16 h; settings: for DC50: read-out: Bcl-xL WB in MOLT-4 degradation 16 h: Mean external-Abs DC50
T1 construct: endogenous in cells; host or cells: MOLT-4
Procedure, shortened: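 MOLT-4 cells treated with compounds at 0.02-10 μM final for 16 hr at 37° C; lysates analysed by western blot with anti-BCL-xL, beta-actin and GAPDH loading controls, infrared imaging and densitometry; DC50 and Dmax % reported as letter codes.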

MOLT-4 cells = test: CTG (CellTiter-Glo) cell viability assay, MOLT-4; settings: Homo sapiens, 3 day incubation, read-out: CTG Cell Viability Assay - MOLT-4 3 day: Average external-IC50
Protocol: Compound-mediated viability effect on MOLT-4 and Caki-2 was quantitatively determined using the CellTiter-Glo® Luminescent Cell Viability Assay kit from Promega (Catalog number G7570) following manufacturer's recommended procedures. Briefly, MOLT-4 and Caki-2 cells were seeded into 384 well plates (Grenier Bio-One, Catalog number 781080) with a density of 10,000 cells per well. Compounds were then added to the assay plate with final top concentration of 10 μM and 1:3 dilution series with total of 9 doses. The final DMSO concentration is normalized to 0.2%. The assay plates were incubated at 37° C., for 3 days under 5% CO2. Then the assay plate was equilibrated at room temperature for 10 minutes. To determine cell viability, 30 uL CellTiter Glo reagent was added to each well and the assay plate was centrifuged at 1000 rpm for 30 second, incubated at room temperature for 10 min, and analyzed by detecting the luminescence using a multimode plate reader (EnVision 2105, PerkinElmer). The data was then analyzed by software Prism 7.0 from GraphPad and the dose response curves are fit using a three-parameter logistic equation to calculate IC50.
The letter codes for MOLT-4 IC50 include: A (<0.1 μM); B (0.1-1.0 μM); C (>1.0-3.0 μM); and D (>3.0 μM). The letter codes for Caki-2 IC50 include: A (<0.1 μM); B (0.1-1.0 μM); C (>1.0-10.0 μM); and D (>10.0 μM).

BCL-XL [2] = target: T1, BCL-XL; test: Bcl-xL ELISA degradation in MOLT-4 cells, 6 h; settings: for DC50: read-out: Bcl-xL ELISA in MOLT-4 degradation 6 h: Mean external-Abs DC50
Protocol: The letter codes for BCL-XL DC50 include: A (<0.01 μM); B (0.01-0.1 μM); C (>[…]); D (>0.5-1.0 μM); and E (>1.0 μM). The letter codes for Dmax % include A (>75%); B (50 to 75%); C (<50%).

[3] = western blot, MOLT-4 cells, 16 h, read-out: Bcl-xL WB in MOLT-4 degradation 16 h: Average Dmax %
[4] = western blot, MOLT-4 cells, 16 h

T1 sequence (Q07817 whole entry): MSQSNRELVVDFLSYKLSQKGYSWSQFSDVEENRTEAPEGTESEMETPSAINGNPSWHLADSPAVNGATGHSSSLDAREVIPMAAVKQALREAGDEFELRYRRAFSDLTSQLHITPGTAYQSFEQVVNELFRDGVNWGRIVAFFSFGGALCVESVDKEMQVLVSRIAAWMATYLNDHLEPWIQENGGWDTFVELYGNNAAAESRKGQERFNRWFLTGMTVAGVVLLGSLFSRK

SMILES	Dmax (BCL-XL [1]; [3]) [%]	DC50 (BCL-XL [1]; [4]) [nM]	IC50 (MOLT-4 cells; MOLT-4, 72 h) [nM]	Dmax (BCL-XL [1]; MOLT-4, read-out: Bcl-xL WB in MOLT-4 degradation 16 h: Average Dmax %) [%]	IC50 (MOLT-4 cells; 72 h) [nM]	Dmax (BCL-XL [2]) [%]	DC50 (BCL-XL [2]) [nM]
Cc1ncsc1-c1ccc([C@H](C)NC(=O)[C@@H]2C[C@@H](O)CN2C(=O)[C@@H](NC(=O)CCCCCC(=O)N2CCN(CC[C@H](CSc3ccccc3)Nc3ccc(S(=O)(=O)NC(=O)c4ccc(N5CCC(C)(C)CC5)cc4)cc3S(=O)(=O)C(F)(F)F)CC2)C(C)(C)C)cc1 [I-392]	< 50	> 1000	> 3000				
Cc1ncsc1-c1ccc(CNC(=O)[C@@H]2C[C@@H](O)CN2C(=O)[C@@H](c2cc(N3CC4(CN(CCCC(=O)N(C)CC#Cc5ccc(OCCCc6ccc(N7CCc8cccc(C(=O)Nc9nc%10ccccc%10s9)c8C7)nc6C(=O)O)c(F)c5)C4)C3)no2)C(C)C)cc1 [I-180]	< 50	> 1000	> 3000				
Cc1ncsc1-c1ccc(CNC(=O)[C@@H]2C[C@@H](O)CN2C(=O)[C@@H](NC(=O)C2(F)CC2)C(C)(C)C)c(OCCCNC(=O)c2nc(N3CCc4cccc(C(=O)Nc5nc6ccccc6s5)c4C3)ccc2-c2cnn(CC3CCCCC3)c2C)c1 [I-200]	50 to 75	100 to 500	100 to 1000				
Cc1ncsc1-c1ccc(CNC(=O)[C@@H]2C[C@@H](O)CN2C(=O)[C@@H](NC(=O)C2(F)CC2)C(C)(C)C)c(OCC(=O)N2CCN(CCCC3(Cn4ncc(-c5ccc(N6CCc7cccc(C(=O)Nc8nc9ccccc9s8)c7C6)nc5C(=O)O)c4C)CCCCC3)CC2)c1 [I-173]	50 to 75	> 1000	100 to 1000				
Cc1ncsc1-c1ccc([C@@H](CC(=O)N(C)CC(=O)N2CCN(CC[C@H](CSc3ccccc3)Nc3ccc(S(=O)(=O)NC(=O)c4ccc(N5CCN(CC6=C(c7ccc(Cl)cc7)CCC(C)(C)C6)CC5)cc4)cc3S(=O)(=O)C(F)(F)F)CC2)NC(=O)[C@@H]2C[C@@H](O)CN2C(=O)[C@@H](NC(=O)C2(F)CC2)C(C)(C)C)cc1 [I-137]		100 to 500		> 75	1000 to 3000		
Cc1ncsc1-c1ccc(CNC(=O)[C@@H]2C[C@@H](O)CN2C(=O)[C@@H](NC(=O)C2(F)CC2)C(C)(C)C)c(OCCCCNC(=O)c2nc(N3CCc4cccc(C(=O)Nc5nc6ccccc6s5)c4C3)ccc2-c2cnn(CC3CCCCC3)c2C)c1 [I-190]	50 to 75	500 to 1000	100 to 1000				
Cc1ncsc1-c1ccc([C@H](C)NC(=O)[C@@H]2C[C@@H](O)CN2C(=O)[C@@H](NC(=O)CCCC(=O)NCCOc2ccc(C(=O)Nc3nc4ccccc4s3)c3c2CCN(c2ccc(-c4cnn(CC5CCCCC5)c4C)c(C(=O)O)n2)C3)C(C)(C)C)cc1 [I-43]	50 to 75	100 to 500	100 to 1000				
Cc1cc([C@@H](C(=O)N2C[C@H](O)C[C@H]2C(=O)NCc2ccc(-c3scnc3C)cc2OCC(=O)N2CCN(CC[C@H](CSc3ccccc3)Nc3ccc(S(=O)(=O)NC(=O)c4ccc(N5CCN(CC6=C(c7ccc(Cl)cc7)CCC(C)(C)C6)CC5)cc4)cc3S(=O)(=O)C(F)(F)F)CC2)C(C)C)on1 [I-135]	> 75	10 to 100	100 to 1000				
Cc1ncsc1-c1ccc(CNC(=O)[C@@H]2C[C@@H](O)CN2C(=O)[C@@H](NC(=O)C2(F)CC2)C(C)(C)C)c(OCCCCCC(=O)NCCOc2ccc(C(=O)Nc3nc4ccccc4s3)c3c2CCN(c2ccc(-c4cnn(CC5CCCCC5)c4C)c(C(=O)O)n2)C3)c1 [I-47]	< 50	> 1000	> 3000				
Cc1ncsc1-c1ccc([C@H](C)NC(=O)[C@@H]2C[C@@H](O)CN2C(=O)[C@@H](NC(=O)CCCCCCCS(=O)(=O)NC(=O)c2nc(N3CCc4cccc(C(=O)Nc5nc6ncccc6s5)c4C3)ccc2-c2cnn(CC34CC5CC(CC(C5)C3)C4)c2C)C(C)(C)C)cc1 [I-140]	> 75	< 10	100 to 1000				
Cc1ncsc1-c1ccc([C@H](C)NC(=O)[C@@H]2C[C@@H](O)CN2C(=O)[C@@H](NC(=O)CCCCCCCCNC(=O)c2nc(N3CCc4cccc(C(=O)Nc5nc6ccccc6s5)c4C3)ccc2-c2cnn(CC3CCOCC3)c2C)C(C)(C)C)cc1 [I-142]	> 75	100 to 500	> 3000				
Cc1ncsc1-c1ccc(CNC(=O)[C@@H]2C[C@@H](O)CN2C(=O)[C@@H](c2cc(OCCCCCCCCC(=O)N(C)CC#Cc3ccc(OCCCc4ccc(N5CCc6cccc(C(=O)Nc7nc8ccccc8s7)c6C5)nc4C(=O)O)c(F)c3)no2)C(C)C)cc1 [I-171]	50 to 75	100 to 500	1000 to 3000				
Cc1ncsc1-c1ccc(CNC(=O)[C@@H]2C[C@@H](O)CN2C(=O)[C@@H](NC(=O)C2(F)CC2)C(C)(C)C)c(OCCN2CCC(NC(=O)c3nc(N4CCc5cccc(C(=O)Nc6nc7ccccc7s6)c5C4)ccc3-c3cnn(CC4CCCCC4)c3C)CC2)c1 [I-191]	50 to 75	100 to 500	100 to 1000				
Cc1ncsc1-c1ccc([C@H](CC(=O)N(C)CCCC(=O)N2CCN(CC[C@H](CSc3ccccc3)Nc3ccc(S(=O)(=O)NC(=O)c4ccc(N5CCN(CC6=C(c7ccc(Cl)cc7)CCC(C)(C)C6)CC5)cc4)cc3S(=O)(=O)C(F)(F)F)CC2)NC(=O)[C@@H]2C[C@@H](O)CN2C(=O)[C@@H](NC(=O)C2(F)CC2)C(C)(C)C)cc1 [I-138]	< 50	> 1000	> 3000				
Cc1ncsc1-c1ccc([C@H](C)NC(=O)[C@@H]2C[C@@H](O)CN2C(=O)C(c2cc(OCC3CCN(CCNC(=O)c4nc(N5CCc6cccc(C(=O)Nc7nc8ccccc8s7)c6C5)ccc4-c4cnn(CC5CCCCC5)c4C)CC3)no2)C(C)C)cc1 (stereo partly drawn) [I-175]	< 50	> 1000	100 to 1000				
Cc1ncsc1-c1ccc(CNC(=O)[C@@H]2C[C@H](O)CN2C(=O)[C@@H](NC(=O)C2(F)CC2)C(C)(C)C)c(OCCCCCS(=O)(=O)NC(=O)c2nc(N3CCc4cccc(C(=O)Nc5nc6ccccc6s5)c4C3)ccc2-c2cnn(CC34CC5CC(CC(C5)C3)C4)c2C)c1 [I-290]			100 to 1000			50 to 75	100 to 500
Cc1ncsc1-c1ccc(CNC(=O)[C@@H]2C[C@@H](O)CN2C(=O)[C@@H](NC(=O)C2(F)CC2)C(C)(C)C)c(CCCN2CCN(CC[C@H](CSc3ccccc3)Nc3ccc(S(=O)(=O)NC(=O)c4ccc(N5CCN(CC6=C(c7ccc(Cl)cc7)CCC(C)(C)C6)CC5)cc4)cc3S(=O)(=O)C(F)(F)F)CC2)c1 [I-211]			100 to 1000			< 50	> 1000
Cc1ncsc1-c1ccc([C@H](C)NC(=O)[C@@H]2C[C@@H](O)CN2C(=O)[C@@H](NC(=O)CN(C)CCCS(=O)(=O)NC(=O)c2nc(N3CCc4cccc(C(=O)Nc5nc6ccccc6s5)c4C3)ccc2-c2cnn(CC3CCCCC3)c2C)C(C)(C)C)cc1 [I-220]					< 100	> 75	< 10
Cc1ncsc1-c1ccc(CNC(=O)[C@@H]2C[C@@H](O)CN2C(=O)[C@@H](NC(=O)C2(F)CC2)C(C)(C)C)c(OCC2CN(C3CCC(NC(=O)c4nc(N5CCc6cccc(C(=O)Nc7nc8ccccc8s7)c6C5)ccc4-c4cnn(CC5CCCCC5)c4C)CC3)C2)c1 (stereo partly drawn) [I-216]			1000 to 3000			< 50	> 1000
Cc1ncsc1-c1ccc(CNC(=O)[C@@H]2C[C@@H](O)CN2C(=O)[C@@H](NC(=O)C2(F)CC2)C(C)(C)C)c(OC2CCN(CCNC(=O)c3nc(N4CCc5cccc(C(=O)Nc6nc7ccccc7s6)c5C4)ccc3-c3cnn(CC4CCCCC4)c3C)CC2)c1 [I-215]			100 to 1000			50 to 75	100 to 500

Reference: patent US20250197387A1, “BCL-XL DEGRADERS AND USES THEREOF” (Kymera Therapeutics, Inc., priority 2021, published 2025)
